Data: PubChem BioAssay (NCI)
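Here, GI50 denotes the concentration required for 50% inhibition of growth. At the TGI there is no net growth.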

Columns and labels:
Assay in all cases: NCI-60 cell line screen, 384-well format
786-0 renal = system: 786-0 renal
A498 renal = system: A498 renal
A549 NSCLC = system: A549 NSCLC
ACHN renal = system: ACHN renal
BT-549 breast = system: BT-549 breast
CAKI-1 renal = system: CAKI-1 renal
CCRF-CEM leukemia = system: CCRF-CEM leukemia
COLO 205 colon = system: COLO 205 colon
DU-145 prostate = system: DU-145 prostate
EKVX NSCLC = system: EKVX NSCLC
HCC-2998 colon = system: HCC-2998 colon
HCT-15 colon = system: HCT-15 colon
HL-60(TB) leukemia = system: HL-60(TB) leukemia
HOP-62 NSCLC = system: HOP-62 NSCLC
HOP-92 NSCLC = system: HOP-92 NSCLC
HS 578T breast = system: HS 578T breast
HT29 colon = system: HT29 colon
IGROV1 ovarian = system: IGROV1 ovarian
K-562 leukemia = system: K-562 leukemia
KM12 colon = system: KM12 colon
LOX IMVI melanoma = system: LOX IMVI melanoma
M14 melanoma = system: M14 melanoma
MALME-3M melanoma = system: MALME-3M melanoma
MCF7 breast = system: MCF7 breast
MDA-MB-231 breast = system: MDA-MB-231 breast
MDA-MB-435 melanoma = system: MDA-MB-435 melanoma
MDA-MB-468 breast = system: MDA-MB-468 breast
MOLT-4 leukemia = system: MOLT-4 leukemia
NCI-H226 lung = system: NCI-H226 lung
NCI-H23 lung = system: NCI-H23 lung
NCI-H322M lung = system: NCI-H322M lung
NCI-H460 NSCLC = system: NCI-H460 NSCLC
NCI-H522 lung = system: NCI-H522 lung
NCI/ADR-RES ovarian = system: NCI/ADR-RES ovarian
OVCAR-3 ovarian = system: OVCAR-3 ovarian
OVCAR-4 ovarian = system: OVCAR-4 ovarian
OVCAR-5 ovarian = system: OVCAR-5 ovarian
OVCAR-8 ovarian = system: OVCAR-8 ovarian
PC-3 prostate = system: PC-3 prostate
RPMI-8226 leukemia = system: RPMI-8226 leukemia
RXF 393 renal = system: RXF 393 renal
SF-268 CNS = system: SF-268 CNS
SF-295 CNS = system: SF-295 CNS
SF-539 CNS = system: SF-539 CNS
SK-MEL-28 melanoma = system: SK-MEL-28 melanoma
SK-MEL-5 melanoma = system: SK-MEL-5 melanoma
SK-OV-3 ovarian = system: SK-OV-3 ovarian
SN12C renal = system: SN12C renal
SNB-19 CNS = system: SNB-19 CNS
SNB-75 CNS = system: SNB-75 CNS
SR leukemia = system: SR leukemia
SW-620 colon = system: SW-620 colon
T-47D breast = system: T-47D breast
TK-10 renal = system: TK-10 renal
U251 glioblastoma = system: U251 glioblastoma
UACC-257 melanoma = system: UACC-257 melanoma
UACC-62 melanoma = system: UACC-62 melanoma
UO-31 renal = system: UO-31 renal

CCC[C@H](N[C@H]1CCc2cc(F)cc(F)c2C1)C(=O)Nc1cn(C(C)(C)CNCC(C)(C)C)cn1
GI50 ([…]-0 renal): 14.5 µM | TGI (786-0 renal): 29.9 µM | GI50 (A498 renal): 11.7 µM | TGI (A498 renal): 26.6 µM | GI50 (A549 NSCLC): 22.2 µM | TGI (A549 NSCLC): > 100 µM | GI50 (ACHN renal): 19.9 µM | TGI (ACHN renal): 69.4 µM | GI50 (BT-549 breast): 6.44 µM | TGI (BT-549 breast): 26.2 µM | GI50 (CAKI-1 renal): 14.2 µM | TGI (CAKI-1 renal): 31.6 µM | GI50 (CCRF-CEM leukemia): 6.62 µM | TGI (CCRF-CEM leukemia): 20 µM | GI50 (COLO 205 colon): 21.3 µM | TGI (COLO 205 colon): 97.7 µM | GI50 (DU-145 prostate): 20.6 µM | TGI (DU-145 prostate): 74.6 µM | GI50 (EKVX NSCLC): 19.2 µM | TGI (EKVX NSCLC): 71.8 µM | GI50 (HCC-2998 colon): 7.48 µM | TGI (HCC-2998 colon): 21.6 µM | GI50 (HCT-15 colon): 12 µM | TGI (HCT-15 colon): 25.6 µM | GI50 (HL-60(TB) leukemia): 10.7 µM | TGI (HL-60(TB) leukemia): 22.6 µM | GI50 (HOP-62 NSCLC): 17.7 µM | TGI (HOP-62 NSCLC): 51.2 µM | GI50 (HOP-92 NSCLC): 11.5 µM | TGI (HOP-92 NSCLC): 26.2 µM | GI50 (HS 578T breast): 13 µM | TGI (HS 578T breast): 31.7 µM | GI50 (HT29 colon): 9.66 µM | TGI (HT29 colon): 22.7 µM | GI50 (IGROV1 ovarian): 25.9 µM | TGI (IGROV1 ovarian): > 100 µM | GI50 (K-562 leukemia): 5.58 µM | TGI (K-562 leukemia): 17 µM | GI50 (KM12 colon): 16.1 µM | TGI (KM12 colon): 35.3 µM | GI50 (LOX IMVI melanoma): 17.3 µM | TGI (LOX IMVI melanoma): 31.3 µM | GI50 (M14 melanoma): 14.1 µM | TGI (M14 melanoma): 27.9 µM | GI50 (MALME-3M melanoma): 2.64 µM | TGI (MALME-3M melanoma): 14.4 µM | GI50 (MCF7 breast): 6.74 µM | TGI (MCF7 breast): 23.1 µM | GI50 (MDA-MB-231 breast): 12.2 µM | TGI (MDA-MB-231 breast): 32.1 µM | GI50 (MDA-MB-435 melanoma): 20.7 µM | TGI (MDA-MB-435 melanoma): 61.2 µM | GI50 (MDA-MB-468 breast): 0.603 µM | TGI (MDA-MB-468 breast): 6.55 µM | GI50 (MOLT-4 leukemia): 3.46 µM | TGI (MOLT-4 leukemia): 15 µM | GI50 (NCI-H226 lung): 15.6 µM | TGI (NCI-H226 lung): 40.4 µM | GI50 (NCI-H23 lung): 12.1 µM | TGI (NCI-H23 lung): 29.6 µM | GI50 (NCI-H322M lung): 26.3 µM | TGI (NCI-H322M lung): 92.6 µM | GI50 (NCI-H460 NSCLC): 15.1 µM | TGI (NCI-H460 NSCLC): 29.4 µM | GI50 (NCI-H522 lung): 18.4 µM | TGI (NCI-H522 lung): 48.4 µM | GI50 (NCI/ADR-RES ovarian): 11.1 µM | TGI (NCI/ADR-RES ovarian): 27.1 µM | GI50 (OVCAR-3 ovarian): 11.1 µM | TGI (OVCAR-3 ovarian): 23.5 µM | GI50 (OVCAR-4 ovarian): 13.8 µM | TGI (OVCAR-4 ovarian): 61.9 µM | GI50 (OVCAR-5 ovarian): 21.4 µM | TGI (OVCAR-5 ovarian): 53.9 µM | GI50 (OVCAR-8 ovarian): 22.3 µM | TGI (OVCAR-8 ovarian): > 100 µM | GI50 (PC-3 prostate): 6.56 µM | TGI (PC-3 prostate): 21.8 µM | GI50 (RPMI-8226 leukemia): 3.03 µM | TGI (RPMI-8226 leukemia): 14.1 µM | GI50 (RXF 393 renal): 11.1 µM | TGI (RXF 393 renal): 27.1 µM | GI50 (SF-268 CNS): 19.8 µM | TGI (SF-268 CNS): 50.8 µM | GI50 (SF-295 CNS): 14.6 µM | TGI (SF-295 CNS): 30.2 µM | GI50 (SF-539 CNS): 18 µM | TGI (SF-539 CNS): 32.1 µM | GI50 (SK-MEL-28 melanoma): 14.7 µM | TGI (SK-MEL-28 melanoma): 29.3 µM | GI50 (SK-MEL-5 melanoma): 11.4 µM | TGI (SK-MEL-5 melanoma): 23.6 µM | GI50 (SK-OV-3 ovarian): 15.8 µM | TGI (SK-OV-3 ovarian): 33.2 µM | GI50 (SN12C renal): 33.1 µM | TGI (SN12C renal): > 100 µM | GI50 (SNB-19 CNS): 21.9 µM | TGI (SNB-19 CNS): 67.3 µM | GI50 (SNB-75 CNS): 19.4 µM | TGI (SNB-75 CNS): 71 µM | GI50 (SR leukemia): 3.71 µM | TGI (SR leukemia): 15.4 µM | GI50 (SW-620 colon): 21.4 µM | TGI (SW-620 colon): 42.2 µM | GI50 (T-47D breast): 6.21 µM | TGI (T-47D breast): 40 µM | GI50 (TK-10 renal): 21.4 µM | TGI (TK-10 renal): 90 µM | GI50 (U251 glioblastoma): 17.3 µM | TGI (U251 glioblastoma): 33.1 µM | GI50 (UACC-257 melanoma): 5.51 µM | TGI (UACC-257 melanoma): 21 µM | GI50 (UACC-62 melanoma): 14.1 µM | TGI (UACC-62 melanoma): 27.4 µM | GI50 (UO-31 renal): 14.9 µM | TGI (UO-31 renal): 32.4 µM
